Where a SMILES comes first, the peptide text is derived from it. Where no end group is shown, it is not given here.
What was measured:
SNCG [1] = target: T1, SNCG (Homo sapiens, UniProt O76070); test: Far-UV circular dichroism of SNCG titrated with ANK peptide, calculated secondary structure; set-up: The SNCG coding region was amplified from the human cDNA clone; GST (N, cleaved yes); made in house; host or cells: Escherichia coli BL21 (DE3)
Protocol: FIGS. 1B and 1C provide far-UV circular dichroism (CD) spectra of SNCG (10 μM) with titration of ANK peptide […] (SEQ ID NO:1) at concentrations of 2 μM, 12 μM and 24 μM (FIG. 1B) and 25 μM, 50 μM and 100 μM (FIG. 1C). […] Spectra patterns correspond to random coil structures.
Titration of SNCG with the ANK peptide also gave rise to far-UV spectra characteristic of an unfolded protein (FIG. 1B) and produced no significant changes in calculated secondary structure.
The SNCG-ANK interaction was monitored using far-UV CD recorded on a rapid-scanning monochromator fitted with a CD module (RSM 1000, Olis Inc., Bogart Ga.). Samples containing 0.145 mg/ml SNCG were dialyzed into 5 mM sodium phosphate buffer, pH 7.0 for data acquisition. Spectra were averaged from 12 scans recorded at 25° C. The baseline was corrected by subtracting the spectra measured under identical conditions for the remaining buffer after dialysis. Peptide was reconstituted into flow-through buffer after dialysis and used for titration. Molar ellipticity [θ] was calculated according to the formula [θ]=[θ]×100/(nlc), where n represents the number of amino acids in the protein, l represents the path length of the cuvette in centimeters and c represents the concentration in millimolar. Percentage secondary structure was calculated using the web-based program CDNN (Bohm et al. Protein Eng. 1992 5:191-195).

MCF7-SNCG cells = test: Mitotic index and apoptosis by DAPI staining after paclitaxel; assay type: cell-based; settings: SNCG cells expressing EGFP-ANK versus pEGFP, paclitaxel 18 hours
Protocol: FIG. 7A through D show expression of EGFP-ANK disrupting the SNCG-mediated inhibition of mitotic checkpoint function as measured by microscopy and flow cytometry. The bar graphs show the expression of EGFP-ANK disrupting the SNCG-mediated inhibition of mitotic checkpoint function, using (FIG. 7A) DAPI and (FIG. 7B) anti-phospho-H^3 staining. For graphs of FIGS. 7A and 7B, the cells treated with 0.5 μM paclitaxel for 18 hours or untreated control cells were fixed with 4% paraformaldehyde for 20 minutes at room temperature. In both cases, the cells were then stained with 1 μg/ml of DAPI or 2 μg/ml anti-phospho-H3 primary and Texas Red goat anti-rabbit secondary antibodies (Invitrogen). Green fluorescent cells were identified for positive transfected cells. For each sample, 200-300 cells randomly chosen from 5 different views under a Nikon fluorescent microscope were scored for interphase, mitotic, or apoptotic based upon nuclei morphology. The data shown were derived from three separate transfections (p<0.01). […]
Two days after transfection, cells were exposed to paclitaxel for 18 hours and numbers of mitotic arrested and apoptotic cells were counted after DAPI staining. […] These cells were also probed with rabbit polyclonal anti-phospho-H^3 and the mitotic index was calculated according to the proportion of the number of H^3 stained EGFP positive cells to total EGFP positive cells (FIG. 7B). […]

SNCG [2] = target: T1, SNCG; test: Co-immunoprecipitation of EGFP-ANK with anti-SNCG antibody; assay type: binding; set-up: expressed in transfected cells; host or cells: MCF7-SNCG (MCF7 stably expressing SNCG)

T1 sequence (O76070 whole entry): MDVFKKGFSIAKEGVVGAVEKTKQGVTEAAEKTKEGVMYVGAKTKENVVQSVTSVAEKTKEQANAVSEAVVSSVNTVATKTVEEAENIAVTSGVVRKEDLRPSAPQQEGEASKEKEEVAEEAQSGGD

co-precipitation with SNCG in anti-SNCG IP complexes (SNCG [2]; MCF7-SNCG cells transfected with pEGFP-ANK, western blot with anti-GFP)	presence in anti-SNCG IP complexes (SNCG [2]; MCF7-neo cells (SNCG negative control))	Compound	Structure (%) Antiparallel (SNCG [1]; SNCG + 2.0 μM ANK Peptide) [%]	Structure (%) Beta-Turn (SNCG [1]; SNCG + 2.0 μM ANK Peptide) [%]	Structure (%) Helix (SNCG [1]; SNCG + 2.0 μM ANK Peptide) [%]	Structure (%) Parallel (SNCG [1]; SNCG + 2.0 μM ANK Peptide) [%]	Structure (%) Random Coil (SNCG [1]; SNCG + 2.0 μM ANK Peptide) [%]	Structure (%) Antiparallel (SNCG [1]; SNCG + 12 μM ANK Peptide) [%]	Structure (%) Beta-Turn (SNCG [1]; SNCG + 12 μM ANK Peptide) [%]	Structure (%) Helix (SNCG [1]; SNCG + 12 μM ANK Peptide) [%]	Structure (%) Parallel (SNCG [1]; SNCG + 12 μM ANK Peptide) [%]	Structure (%) Random Coil (SNCG [1]; SNCG + 12 μM ANK Peptide) [%]	Structure (%) Antiparallel (SNCG [1]; SNCG + 24 μM ANK Peptide) [%]	Structure (%) Beta-Turn (SNCG [1]; SNCG + 24 μM ANK Peptide) [%]	Structure (%) Helix (SNCG [1]; SNCG + 24 μM ANK Peptide) [%]	Structure (%) Parallel (SNCG [1]; SNCG + 24 μM ANK Peptide) [%]	Structure (%) Random Coil (SNCG [1]; SNCG + 24 μM ANK Peptide) [%]	increase in the number of mitotic arrested cells (MCF7-SNCG cells) [fold]
–	–	CC[C@H](C)[C@H](NC(=O)[C@H](CS)NC(=O)CNC(=O)[C@H](CC(C)C)NC(=O)[C@H](Cc1c[nH]cn1)NC(=O)CNC(=O)[C@H](Cc1c[nH]cn1)NC(=O)[C@H](CCC(N)=O)NC(=O)[C@H](CO)NC(=O)[C@H](C)NC(=O)[C@@H](NC(=O)[C@H](Cc1c[nH]cn1)NC(=O)[C@H](CC(C)C)NC(=O)[C@H](C)NC(=O)[C@H](CO)NC(=O)[C@H](CC(N)=O)NC(=O)CNC(=O)[C@H](CCCCN)NC(C)=O)C(C)C)C(=O)N[C@@H](CCC(N)=O)C(=O)N[C@H](C(=O)N[C@@H](CC(C)C)C(=O)N[C@H](C(=O)N[C@@H](CCCNC(=N)N)C(=O)N[C@@H](Cc1ccc(O)cc1)C(=O)NCC(=O)N[C@@H](C)C(=O)N[C@@H](CC(N)=O)C(=O)N[C@H](C(=O)N[C@H](C(=O)N[C@@H](CCSC)C(=O)N[C@@H](CCC(N)=O)C(=O)N[C@@H](CC(N)=O)C(=O)N[C@@H](Cc1c[nH]cn1)C(=O)NCC(N)=O)[C@@H](C)O)C(C)C)C(C)C)[C@@H](C)O [ANK peptide] (Ac-KGNSALHVASQHGHLGCIQTLVRYGANVTMQNHG-NH2)	9.00	17.6	29.2	10.3	36.0	8.80	17.4	30.0	10.0	35.4	8.70	17.3	30.4	9.90	35.0	–
co-precipitate with SNCG	not in the IP complexes	EGFP-ANK: ANK peptide expressed as a fusion protein with its amino-terminal linked to EGFP protein, approximately 37 kDa ({EGFP}-KGNSALHVASQHGHLGCIQTLVRYGANVTMQNHG)	–	–	–	–	–	–	–	–	–	–	–	–	–	–	–	~2

Reference: US7897568B2, “Compositions for treatment of cancer” (priority 2006, dated 2011)
